Patent US8785488B2 (Exelixis Patent Company LLC, priority 2009, dated 2014)

Tests used:
[1] = target: T1, human TGR5 (h-TGR5) (Homo sapiens, UniProt Q8TDU6); experiment: TGR5/CRE-Luciferiase Assay (HEK 293 hTGR5/CRE-Luc cells); assay type: cell-based; settings: h-TGR5 CRE-Luc EC50, Table 1; read-out: CRE-Luc (EC50)
T1 construct: expressed in transfected cells
T1 sequence (Q8TDU6 1-330): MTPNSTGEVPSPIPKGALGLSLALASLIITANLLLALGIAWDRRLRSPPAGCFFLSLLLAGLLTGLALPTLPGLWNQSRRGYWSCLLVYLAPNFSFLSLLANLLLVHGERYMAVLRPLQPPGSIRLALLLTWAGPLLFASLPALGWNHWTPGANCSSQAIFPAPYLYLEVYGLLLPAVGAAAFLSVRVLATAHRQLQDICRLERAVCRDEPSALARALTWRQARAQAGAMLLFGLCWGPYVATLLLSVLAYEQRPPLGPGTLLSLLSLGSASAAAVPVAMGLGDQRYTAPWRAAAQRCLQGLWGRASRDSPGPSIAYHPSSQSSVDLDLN
Procedure, shortened: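 HEK293 cells stably carrying hTGR5 and a CRE-luciferase reporter were exposed to serially diluted compounds (diluted in DMEM with 5% DMSO) for 6 h. Cells were then lysed in luciferase buffer, luminescence was read, and EC50 values were derived from dose-response curves.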

[2] = target: T2, h-TGR5 (Homo sapiens, UniProt Q8TDU6); experiment: TGR5 cAMP Assay using Cisbio cAMP Dynamic2 htrf kit (hTGR5CRE-luc HEK 293 cells); assay type: cell-based; settings: h-TGR5 cAMP EC50, Table 1; read-out: cAMP (EC50)
T2 construct: expressed in transfected cells
T2 sequence (Q8TDU6 1-330): T1 sequence (Q8TDU6 1-330)
Procedure, shortened: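 […], 4000 hTGR5CRE-luc HEK 293 cells per well, with 0.5 mM IBMX and d2-cAMP, were incubated 30 min at room temperature with compounds in 8-point half-log series, in quadruplicate.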

Row | EC50 [1] | EC50 [2] | Structure (SMILES)
1 | < 100 nM | < 100 nM | COc1cc(-n2c(C(C)(C)c3ccc(Cl)c(Cl)c3)cnc2SCc2c(F)cc(C(=O)O)cc2F)ccc1F [4-[({5-[1-(3,4-dichlorophenyl)-1-methylethyl]-1-[4-fluoro-3-(methyloxy)phenyl]-1H-imidazol-2-yl}thio)methyl]-3,5-difluorobenzoic acid]
2 | < 100 nM | < 100 nM | CC(C)(c1ccc2onc(N)c2c1)c1cnc(SCc2c(F)cc(C(=O)O)cc2F)n1-c1ccc(F)cc1 [4-[({5-[1-(3-amino-1,2-benzisoxazol-5-yl)-1-methylethyl]-1-(4-fluorophenyl)-1H-imidazol-2-yl}thio)methyl]-3,5-difluorobenzoic acid]
3 | < 100 nM | < 100 nM | CC(C)(c1ccc(F)c(C#N)c1)c1cnc(SCc2c(F)cc(C(=O)O)cc2F)n1-c1ccc(F)cc1 [4-[({5-[1-(3-cyano-4-fluorophenyl)-1-methylethyl]-1-(4-fluorophenyl)-1H-imidazol-2-yl}thio)methyl]-3,5-difluorobenzoic acid]
4 | < 100 nM | < 100 nM | COc1cc(C(C)(C)c2cnc(SCc3cc(C(=O)O)ccc3Cl)n2-c2ccc(F)cc2)ccc1Cl [4-chloro-3-({[5-{1-[4-chloro-3-(methyloxy)phenyl]-1-methylethyl}-1-(4-fluorophenyl)-1H-imidazol-2-yl]thio}methyl)benzoic acid]
5 | 100 to 1000 nM | 100 to 1000 nM | CC(C)(c1ccc(F)c(F)c1)c1cnc(SCc2cc(C(=O)O)ccc2Cl)n1-c1ccc(F)cc1 [4-chloro-3-[({5-[1-(3,4-difluorophenyl)-1-methylethyl]-1-(4-fluorophenyl)-1H-imidazol-2-yl}thio)methyl]benzoic acid]
6 | < 100 nM | < 100 nM | COc1cc(C(C)(C)c2cnc(SCc3cc(S(N)(=O)=O)c(F)cc3Cl)n2-c2ccc(F)cc2)ccc1Cl [4-chloro-5-({[5-{1-[4-chloro-3-(methyloxy)phenyl]-1-methylethyl}-1-(4-fluorophenyl)-1H-imidazol-2-yl]thio}methyl)-2-fluorobenzenesulfonamide]
7 | < 100 nM | 100 to 1000 nM | CC(C)(c1ccc(O)c(O)c1)c1cnc(SCc2c(F)cccc2Cl)n1-c1ccc(F)cc1 [4-{1-[2-{[(2-chloro-6-fluorophenyl)methyl]thio}-1-(4-fluorophenyl)-1H-imidazol-5-yl]-1-methylethyl}benzene-1,2-diol]
8 | < 100 nM | < 100 nM | COc1cc(-n2c(C(C)(C)c3ccc(S(N)(=O)=O)c(Cl)c3)cnc2SCc2c(F)cc(C(=O)O)cc2F)ccc1F [4-{[(5-{1-[4-(aminosulfonyl)-3-chlorophenyl]-1-methylethyl}-1-[4-fluoro-3-(methyloxy)phenyl]-1H-imidazol-2-yl)thio]methyl}-3,5-difluorobenzoic acid]
9 | 100 to 1000 nM | 100 to 1000 nM | COc1cc(-n2c(C(C)(C)c3ccc(S(N)(=O)=O)cc3)cnc2SCc2c(F)cc(C(=O)O)cc2F)ccc1F [4-{[(5-{1-[4-(aminosulfonyl)phenyl]-1-methylethyl}-1-[4-fluoro-3-(methyloxy)phenyl]-1H-imidazol-2-yl)thio]methyl}-3,5-difluorobenzoic acid]
10 | 100 to 1000 nM | 100 to 1000 nM | COc1cc(-n2c(C(C)(C)c3ccc(S(C)(=O)=O)cc3)cnc2SCc2ccc(Cl)c(-c3nnn[nH]3)c2)ccc1F [5-(2-chloro-5-{[(1-[4-fluoro-3-(methyloxy)phenyl]-5-{1-methyl-1-[4-(methylsulfonyl)phenyl]ethyl}-1H-imidazol-2-yl)thio]methyl}phenyl)-1H-tetrazole]
11 | < 100 nM | < 100 nM | COc1cc(C(C)(C)c2cnc(SCc3c(F)cc(OCc4nnn[nH]4)cc3F)n2-c2ccc(F)cc2)ccc1Cl [5-({[4-({[5-{1-[4-chloro-3-(methyloxy)phenyl]-1-methylethyl}-1-(4-fluorophenyl)-1H-imidazol-2-yl]thio}methyl)-3,5-difluorophenyl]oxy}methyl)-1H-tetrazole]
12 | < 100 nM | < 100 nM | COc1ccc(C(C)(C)c2cnc(SCc3ccc(F)c(C(N)=O)c3)n2-c2ccc(F)cc2)cc1OC [5-({[5-{1-[3,4-bis(methyloxy)phenyl]-1-methylethyl}-1-(4-fluorophenyl)-1H-imidazol-2-yl]thio}methyl)-2-fluorobenzamide]
13 | < 100 nM | < 100 nM | COc1ccc(C(C)(C)c2cnc(SCc3ccc(F)c(S(N)(=O)=O)c3)n2-c2ccc(F)cc2)cc1OC [5-({[5-{1-[3,4-bis(methyloxy)phenyl]-1-methylethyl}-1-(4-fluorophenyl)-1H-imidazol-2-yl]thio}methyl)-2-fluorobenzenesulfonamide]
14 | < 100 nM | < 100 nM | COc1ccc(C(C)(C)c2cnc(SCc3ccc(F)c(S(N)(=O)=O)c3)n2-c2ccc(F)cc2)cc1Cl [5-({[5-{1-[3-chloro-4-(methyloxy)phenyl]-1-methylethyl}-1-(4-fluorophenyl)-1H-imidazol-2-yl]thio}methyl)-2-fluorobenzenesulfonamide]

Second part, the compound before the results:

Row | Structure (SMILES) | EC50 [1] | EC50 [2]
15 | COc1cc(-n2c(C(C)(C)c3ccc(Cl)c(Cl)c3)cnc2SCC2CCN(C(=O)NC(C)C)CC2)ccc1F [4-[({5-[1-(3,4-dichlorophenyl)-1-methylethyl]-1-[4-fluoro-3-(methyloxy)phenyl]-1H-imidazol-2-yl}thio)methyl]-N-(1-methylethyl)piperidine-1-carboxamide] | < 100 nM | 100 to 1000 nM
16 | O=C(O)c1cc(F)c(CSc2ncc(C3(c4ccc(Cl)c(Cl)c4)CC3)n2-c2ccc(F)cc2)c(F)c1 [4-[({5-[1-(3,4-dichlorophenyl)cyclopropyl]-1-(4-fluorophenyl)-1H-imidazol-2-yl}thio)methyl]-3,5-difluorobenzoic acid] | 100 to 1000 nM | 100 to 1000 nM
17 | CC(C)(c1ccc(F)c(F)c1)c1cnc(SCC2CCN(S(C)(=O)=O)CC2)n1-c1ccc(F)cc1 [4-[({5-[1-(3,4-difluorophenyl)-1-methylethyl]-1-(4-fluorophenyl)-1H-imidazol-2-yl}thio)methyl]-1-(methylsulfonyl)piperidine] | < 100 nM | 100 to 1000 nM
18 | CC(C)(c1ccc(F)c(F)c1)c1cnc(SCC2CCN(C(=O)NN3CCCC3)CC2)n1-c1ccc(F)cc1 [4-[({5-[1-(3,4-difluorophenyl)-1-methylethyl]-1-(4-fluorophenyl)-1H-imidazol-2-yl}thio)methyl]-N-pyrrolidin-1-ylpiperidine-1-carboxamide] | 100 to 1000 nM | 100 to 1000 nM
19 | COc1cc(-n2c(C(C)(C)c3ccc4onc(N)c4c3)cnc2SCc2c(F)cc(C(=O)O)cc2F)ccc1F [4-[({5-[1-(3-amino-1,2-benzisoxazol-5-yl)-1-methylethyl]-1-[4-fluoro-3-(methyloxy)phenyl]-1H-imidazol-2-yl}thio)methyl]-3,5-difluorobenzoic acid] | < 100 nM | < 100 nM
20 | COc1cc(-n2c(C(C)(C)c3ccc(F)c(C#N)c3)cnc2SCc2c(F)cc(C(=O)O)cc2F)ccc1F [4-[({5-[1-(3-cyano-4-fluorophenyl)-1-methylethyl]-1-[4-fluoro-3-(methyloxy)phenyl]-1H-imidazol-2-yl}thio)methyl]-3,5-difluorobenzoic acid] | < 100 nM | < 100 nM
21 | CC(C)(c1ccc(Cl)c(Cl)c1)c1cnc(SCc2cc(C(=O)O)ccc2Cl)n1-c1ccc(F)cc1 [4-chloro-3-[({5-[1-(3,4-dichlorophenyl)-1-methylethyl]-1-(4-fluorophenyl)-1H-imidazol-2-yl}thio)methyl]benzoic acid] | 100 to 1000 nM | 100 to 1000 nM
22 | CC(C)(c1ccc(S(N)(=O)=O)cc1)c1cnc(SCc2c(F)cccc2Cl)n1-c1ccc(F)cc1 [4-{1-[2-{[(2-chloro-6-fluorophenyl)methyl]thio}-1-(4-fluorophenyl)-1H-imidazol-5-yl]-1-methylethyl}benzenesulfonamide] | 100 to 1000 nM | 100 to 1000 nM
23 | COc1cc(-n2c(C(C)(C)c3ccc(S(N)(=O)=O)c(Cl)c3)cnc2SCc2c(F)cc(S(=O)(=O)NC(=O)NN3CCOCC3)cc2F)ccc1F [4-{[(5-{1-[4-(aminosulfonyl)-3-chlorophenyl]-1-methylethyl}-1-[4-fluoro-3-(methyloxy)phenyl]-1H-imidazol-2-yl)thio]methyl}-3,5-difluoro-N-[(morpholin-4-ylamino)carbonyl]benzenesulfonamide] | < 100 nM | < 100 nM
24 | COc1cc(-n2c(C(C)(C)c3ccc(S(N)(=O)=O)c(Cl)c3)cnc2SCc2ccc(S(=O)(=O)NC(=O)NN3CCOCC3)cc2Cl)ccc1F [4-{[(5-{1-[4-(aminosulfonyl)-3-chlorophenyl]-1-methylethyl}-1-[4-fluoro-3-(methyloxy)phenyl]-1H-imidazol-2-yl)thio]methyl}-3-chloro-N-[(morpholin-4-ylamino)carbonyl]benzenesulfonamide] | 100 to 1000 nM | < 100 nM
25 | COc1cc(-n2c(C(C)(C)c3ccc(S(N)(=O)=O)c(Cl)c3)cnc2SCc2ccc(S(=O)(=O)NC(=O)NN3CCCCC3)cc2Cl)ccc1F [4-{[(5-{1-[4-(aminosulfonyl)-3-chlorophenyl]-1-methylethyl}-1-[4-fluoro-3-(methyloxy)phenyl]-1H-imidazol-2-yl)thio]methyl}-3-chloro-N-[(piperidin-1-ylamino)carbonyl]benzenesulfonamide] | 100 to 1000 nM | 100 to 1000 nM
